# Reference: ChEMBL document CHEMBL5226309, “Synthetic RNA Modulators in Drug Discovery” (J Med Chem, 2021)
# What was measured:
# [1] = molecular target: T1, Muscleblind-like protein 1 (Homo sapiens) (UniProt Q9NR56); assay: Inhibition of MBNL1 (unknown origin) in human GDM-1 cells assessed as rescue of IR exon splicing defect at 100 pM by PCR analysis relative to control; format: cell-based
# T1 sequence (whole entry): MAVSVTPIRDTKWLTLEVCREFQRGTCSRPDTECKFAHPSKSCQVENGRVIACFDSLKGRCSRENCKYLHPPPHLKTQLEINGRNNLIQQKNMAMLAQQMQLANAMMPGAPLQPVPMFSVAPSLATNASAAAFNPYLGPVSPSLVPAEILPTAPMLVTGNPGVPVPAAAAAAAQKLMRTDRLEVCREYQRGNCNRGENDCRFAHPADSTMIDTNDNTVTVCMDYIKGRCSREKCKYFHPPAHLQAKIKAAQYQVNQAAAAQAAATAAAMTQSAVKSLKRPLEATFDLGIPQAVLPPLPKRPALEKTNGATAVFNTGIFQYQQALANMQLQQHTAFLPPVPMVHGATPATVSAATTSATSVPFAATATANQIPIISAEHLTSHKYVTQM
# [2] = Binding affinity to pre-miR-21 (unknown origin) assessed as dissociation constant by Monolith NT.115 microscale thermophoresis based analysis
# [3] = Binding affinity to miR-21 (unknown origin) assessed as dissociation constant by fluorescence based analysis
# HEK293 = assay: Inhibition of miR-125a in human HEK293 cells relative to control; format: cell-based; details: dose or concentration not given here
# [4] = Downregulation of alpha-Synuclein level in human SH-SY5Y cells at 5 uM relative to control; format: functional
# [5] = Inhibition of 5'FAM-labeled and 3'DAB-labeled Precursor microRNA-372 (unknown origin) assessed as inhibition of Dicer-induced pre-miR-372 cleavage by measuring fluorescence incubated for 30 min in presence of human recombinant Dicer by FRET Dicer assay
# AGS [6] = assay: Antiproliferative activity against human AGS cells assessed as reduction in cell viability at 25 uM measured after 4 days by CellTiter96 assay relative to control; format: functional; details: 96 h, time 4 day
# [7] = Inhibition of 5'FAM-labeled and 3'DAB-labeled Precursor microRNA-373 (unknown origin) assessed as inhibition of Dicer-induced pre-miR-373 cleavage by measuring fluorescence incubated for 30 min in presence of human recombinant Dicer by FRET Dicer assay
# [8] = Binding affinity to TAR mRNA assessed as dissociation constant by ITC analysis
# [9] = Displacement of Tat from TAR mRNA by FRET analysis
# [10] = Inhibition of miR-21 (unknown origin) maturation assessed as reduction in pre-miR-21 expression at 10 uM by RT-PCR analysis relative to control
# [11] = Inhibition of miR-21 (unknown origin) by luciferase reporter assays relative to control; details: concentration not given here
# [12] = Inhibition of miR-21 in human AGS cells assessed as decrease in pre-miR-21 level; format: cell-based
# AGS [13] = assay: Inhibition of miR-21 in human AGS cells assessed as decrease in pre-miR-21 level relative to control; format: cell-based; details: dose or concentration not given here
# [14] = Inhibition of Precursor microRNA-96 (unknown origin) relative to control; details: concentration not given here
# [15] = Binding affinity to Precursor microRNA-96 (unknown origin) assessed as dissociation constant
# [16] = Binding affinity to DNA hairpin (unknown origin) assessed as dissociation constant
# Hepatitis C virus = assay: Antiviral activity against HCV JFH-1 infected in human Huh-7 cells assessed as reduction in viral replication measured after 48 hrs by RT-PCR analysis relative to control; format: functional, Hepacivirus hominis; set-up: scale not given: the % may be the effect or the level left
# [17] = Downregulation of miR-122 expression in human Huh-7 cells at 10 uM incubated for 48 hrs by RT-PCR analysis relative to control; format: functional
# [18] = Antiproliferative activity against human U87 cells assessed as reduction in cell viability by XTT assay; format: functional, cell-based, U-87MG ATCC; details: U-87 MG
# A498 = assay: Antiproliferative activity against human A498 cells assessed as reduction in cell viability by XTT assay; format: functional, cell-based
# HeLa = assay: Inhibition of miR-21 in human HeLa cells assessed as reduction in relative light unit at 10 uM by luciferase reporter assays relative to control; format: cell-based
# [19] = Inhibition of miR-18a (unknown orgin) production
# [20] = Binding affinity to miR-18a (unknown orgin) assessed as dissociation constant
smiles,measurement,setting,value
C#CC(=O)NCCCCCC(=O)N(CCN(C)C(=O)CCCOc1cccc(-c2nc3ccc(-c4nc5ccc(N6CCN(C)CC6)cc5[nH]4)cc3[nH]2)c1)CC(=O)N(C)[C@@H](C)C(=O)N(C)[C@@H](C)C(=O)N(C)[C@@H](C)C(=O)N(CCCCN(C)C(=O)CCCOc1cccc(-c2nc3ccc(-c4nc5ccc(N6CCN(C)CC6)cc5[nH]4)cc3[nH]2)c1)CC(=O)N(CCCN=[N+]=[N-])CC(N)=O,inhibition,[1],100%
CCCN(CC(=O)N(CCC)CC(=O)N(CCC)CC(=O)N(CC(=O)O)Cc1cn(CCCNC(=O)CCCOc2ccc(-c3nc4ccc(-c5ccc(N6CCN(C)CC6)cc5)cc4[nH]3)cc2)nn1)C(=O)CNCc1cn(CCCNC(=O)CCCOc2ccc(-c3nc4ccc(-c5ccc(N6CCN(C)CC6)cc5)cc4[nH]3)cc2)nn1,Kd,[2],0.98 µM
CNC(=O)c1cc(Oc2ccc(NC(=O)Nc3ccc(Cl)c(C(F)(F)F)c3)c(F)c2)ccn1 [REGORAFENIB],Kd,[3],0.73 µM
CCn1cc(C(=O)NC(C)(C)C)c(=O)c2cc(F)c(N3CCNCC3)nc21,inhibition,HEK293,20%
c1cc(C2=NCCN2)ccc1Oc1ccc(-c2nc3ccc(C4=NCCN4)cc3[nH]2)cc1,Activity,[4],40%
NC[C@@H]1O[C@H](O[C@H]2[C@@H](O)[C@H](O[C@@H]3[C@@H](O)[C@H](N)C[C@H](N)[C@H]3O[C@H]3O[C@H](CN)[C@@H](O)[C@H](O)[C@H]3N)O[C@@H]2Cn2cc(CCC(=O)Nc3ccc(-c4csc(NC(=O)c5ccc(Cl)cc5)n4)cc3)nn2)[C@H](N)[C@@H](O)[C@@H]1O,IC50,[5],0.98 µM
same,inhibition at 25 µM,AGS [6],50%
same,IC50,[7],2.19 µM
CN(C)CCCn1cc(CNC(=O)Cc2csc(NC(=O)Cc3csc(N)n3)n2)nn1,Kd,[8],0.54 µM
same,DC50,[9],1.5 µM
C#CCNC(=O)c1ccc(/N=N/c2ccccc2)cc1,inhibition,[10],78%
same,inhibition,[11],11%
CC(=O)Nc1csc(-c2cccc(NC(=O)CCc3cn(C[C@H]4O[C@@H](O[C@@H]5[C@@H](O)[C@H](N)C[C@H](N)[C@H]5O[C@H]5O[C@H](CN)[C@@H](O)[C@H](O)[C@H]5N)[C@H](O)[C@@H]4O[C@H]4O[C@@H](CN)[C@@H](O)[C@H](O)[C@H]4N)nn3)c2)n1,IC50,[12],2.42 µM
same,inhibition,AGS [13],100%
CCCN(CC(=O)N(CCC)CC(=O)N(CC(N)=O)Cc1cn(CCCNC(=O)CCCOc2c(C(C)(C)C)cc(-c3nc4cc(N5CCN(C)CC5)ccc4[nH]3)cc2C(C)(C)C)nn1)C(=O)CCCOc1cccc(-c2nc3ccc(-c4nc5ccc(N6CCN(C)CC6)cc5[nH]4)cc3[nH]2)c1,inhibition,[14],50%
same,Kd,[15],0.085 µM
same,Kd,[16],> 50 µM
NC[C@@H]1O[C@H](O[C@H]2[C@@H](O)[C@H](O[C@@H]3[C@@H](O)[C@H](N)C[C@H](N)[C@H]3O[C@H]3O[C@H](CN)[C@@H](O)[C@H](O)[C@H]3N)O[C@@H]2Cn2cc(CCC(=O)Nc3ccc(-c4csc(NC(=O)c5ccc(N)cc5)n4)cc3)nn2)[C@H](N)[C@@H](O)[C@@H]1O,IC50,[5],1.08 µM
same,IC50,[7],1.1 µM
O=C(Nc1ccc2ccccc2c1)c1ccc(Cl)cc1Cl,Activity,Hepatitis C virus,48%
same,Activity,[17],72%
C#CCOc1ccc(-c2noc(-c3nnn(-c4cccc(/C(C)=N/O)c4)c3N)n2)cc1,IC50,[18],3.3 µM
same,IC50,A498,100 µM
same,RLU,HeLa,2.19
c1cc(C2=NCCN2)ccc1Oc1ccc(-c2cc3ccc(C4=NCCN4)cc3[nH]2)cc1,Activity,[4],40%
CN1CCN(c2ccc(-c3ccc4nc(-c5cc(C(C)(C)C)c(OCCCC(=O)NCCCN=[N+]=[N-])c(C(C)(C)C)c5)[nH]c4c3)cc2)CC1,IC50,[19],10 µM
same,Kd,[20],32 µM
